From patent US20120129811A1, “TRICYCLIC INHIBITORS OF PRO-MATRIX METALLOPROTEINASE ACTIVATION” (priority 2010, published 2012) come the findings set out here.

Assay [1] deals with T1, proMMP9(67-444;ΔFnII) (SEQ ID NO:5) (Homo sapiens, UniProt P14780, DEL216-390).
T1 construct: start methionine (N); made in house; host or cells: E. coli BL21(DE3) RIL
T1 sequence (P14780 with tags, fused parts or gaps DEL216-390): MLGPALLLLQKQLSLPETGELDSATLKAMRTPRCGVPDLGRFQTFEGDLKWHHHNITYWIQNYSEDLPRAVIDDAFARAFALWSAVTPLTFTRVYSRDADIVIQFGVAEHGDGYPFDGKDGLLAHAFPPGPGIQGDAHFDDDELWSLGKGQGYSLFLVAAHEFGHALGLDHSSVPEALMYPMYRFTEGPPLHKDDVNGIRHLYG
As to the kind of experiment: ThermoFluor binding assay with proMMP9(67-444;ΔFnII). The essentials:
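Thermal shift of 3.5 μM proMMP9(67-444;ΔFnII), desalted beforehand, with 50 μM 1,8-ANS in 50 mM HEPES pH 7.0, 100 mM NaCl, 2.5 mM MgCl2, 300 μM CaCl2, 0.001% Tween-20. Heated 40–90 °C at 1 °C/min, fluorescence read at 500 nm; binding fitted from Tm shifts using DSC- and ThermoFluor-derived unfolding parameters.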

The target of assay [2] is T2, proMMP13(1-268) (SEQ ID NO:7) (Homo sapiens, UniProt P45452).
T2 construct: 6xHis (C); made in house; host or cells: HEK293 (transient, secreted)
As to the kind of experiment: ThermoFluor binding assay with proMMP13(1-268). The procedure:
The ThermoFluor® (TF) assay is a 384-well plate-based binding assay that measures thermal stability of proteins (Biomol Screen 2001, 6, 429-40; Biochemistry 2005, 44, 5258-66). The experiments were carried out using instruments available from Johnson & Johnson Pharmaceutical Research & Development, LLC. TF dye used in all experiments was […] (1,8-ANS) (Invitrogen: A-47).
Compounds were arranged in a pre-dispensed plate (Greiner Bio-one: 781280), wherein compounds were serially diluted in 100% DMSO across 11 columns within a series. Columns 12 and 24 were used as DMSO reference and contained no compound. For multiple compound concentration-response experiments, the compound aliquots (50 nL) were robotically predispensed directly into black 384-well polypropylene PCR microplates (Abgene: TF-0384/k) using a Cartesian Hummingbird liquid handler (DigiLab, Holliston, Mass.). Following compound dispense, protein and dye solutions were added to achieve the final assay volume of 3 μL. The assay solutions were overlayed with 1 μL of silicone oil (Fluka, type DC 200: 85411) to prevent evaporation.
Assay plates were robotically loaded onto a thermostatically controlled PCR-type thermal block and then heated from 40 to 90° C. at a ramp-rate of 1° C./min for all experiments. Fluorescence was measured by continuous illumination with UV light (Hamamatsu LC6) supplied via fiber optics and filtered through a band-pass filter (380-400 nm; >60D cutoff). Fluorescence emission of the entire 384-well plate was detected by measuring light intensity using a CCD camera (Sensys, Roper Scientific) filtered to detect 500±25 nm, resulting in simultaneous and independent readings of all 384 wells. A single image with 20-sec exposure time was collected at each temperature, and the sum of the pixel intensity in a given area of the assay plate was recorded vs temperature and fit to standard equations to yield the Tm (J Biomol Screen 2001, 6, 429-40).
Thermodynamic parameters necessary for fitting compound binding for each proMMP were estimated by differential scanning calorimetry (DSC) and from ThermoFluor® data. The heat capacity of unfolding for each protein was estimated from the molecular weight and from ThermoFluor® dosing data.
ThermoFluor® with proMMP13(1-268) (SEQ ID NO: 7)
The proMMP13(1-268) (SEQ ID NO:7) protein sample preparations included a desalting buffer exchange step via a PD-10 gravity column (GE Healthcare). The desalting buffer exchange was performed prior to diluting the protein to the final assay concentration of 3.5 μM. The concentration of proMMP13(1-268) (SEQ ID NO:7) was estimated spectrophotometrically based on a calculated extinction coefficient of ε280=37000 M^−1 cm^−1, a calculated molecular weight of 30.8 kDa, and calculated pI of 5.33. ThermoFluor® reference conditions were defined as follows: 100 μg/mL proMMP13(1-268) (SEQ ID NO:7), 25 μM 1,8-ANS, pH 7.0 Buffer (50 mM HEPES pH 7.0, 100 mM NaCl, 0.001% Tween-20, 2.5 mM MgCl2, 300 μM CaCl2). The thermodynamic parameters for proMMP13(1-268) (SEQ ID NO:7) are as follows: Tm (° C.)=67 (+/−0.1), ΔUH(Tm)) (cal mol^−1)=107000(+/−5000), ΔUSTm (cal mol^−1 K^−1)=318, ΔUCp (cal mol^−1 K^−1)=2600.
On the technique in general: DSF heats the sample and reads unfolding from a dye or from intrinsic fluorescence.

Assay [3] addresses T3, proMMP9(20-445;ΔFnII) (SEQ ID NO:6) (Homo sapiens, UniProt P14780, DEL216-390).
T3 construct: start methionine (N); made in house; host or cells: E. coli BL21(DE3) RIL
T3 sequence (P14780 with tags, fused parts or gaps DEL216-390): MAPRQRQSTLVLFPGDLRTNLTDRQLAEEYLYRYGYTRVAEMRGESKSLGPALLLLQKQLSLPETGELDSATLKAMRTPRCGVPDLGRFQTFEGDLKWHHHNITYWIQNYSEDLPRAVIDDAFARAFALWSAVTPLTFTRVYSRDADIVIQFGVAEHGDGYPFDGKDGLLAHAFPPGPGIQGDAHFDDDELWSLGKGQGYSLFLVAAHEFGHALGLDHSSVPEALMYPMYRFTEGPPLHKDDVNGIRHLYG
As to the kind of experiment: ThermoFluor binding assay with proMMP9(20-445;ΔFnII). The essentials: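 Protein thermal stability was measured with 2.8 μM proMMP9(20-445;ΔFnII) and 50 μM 1,8-ANS in 50 mM HEPES pH 7.0, 100 mM NaCl, 0.001% Tween-20, 2.5 mM MgCl2, 300 μM CaCl2, across serial compound dilutions. Samples were heated 40–90° C at 1° C/min with fluorescence read at 500 nm. Tm was fitted, and binding was derived from thermodynamic parameters obtained by DSC and ThermoFluor.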

For assay [4], the target named is T4, full-length proMMP9(1-707) activation by catalytic MMP3 (Homo sapiens, UniProt P14780, R574P).
T4 construct: made in house; host or cells: proMMP9: HEK293 (secreted); MMP3: E. coli
T4 sequence (P14780 20-707 R574P): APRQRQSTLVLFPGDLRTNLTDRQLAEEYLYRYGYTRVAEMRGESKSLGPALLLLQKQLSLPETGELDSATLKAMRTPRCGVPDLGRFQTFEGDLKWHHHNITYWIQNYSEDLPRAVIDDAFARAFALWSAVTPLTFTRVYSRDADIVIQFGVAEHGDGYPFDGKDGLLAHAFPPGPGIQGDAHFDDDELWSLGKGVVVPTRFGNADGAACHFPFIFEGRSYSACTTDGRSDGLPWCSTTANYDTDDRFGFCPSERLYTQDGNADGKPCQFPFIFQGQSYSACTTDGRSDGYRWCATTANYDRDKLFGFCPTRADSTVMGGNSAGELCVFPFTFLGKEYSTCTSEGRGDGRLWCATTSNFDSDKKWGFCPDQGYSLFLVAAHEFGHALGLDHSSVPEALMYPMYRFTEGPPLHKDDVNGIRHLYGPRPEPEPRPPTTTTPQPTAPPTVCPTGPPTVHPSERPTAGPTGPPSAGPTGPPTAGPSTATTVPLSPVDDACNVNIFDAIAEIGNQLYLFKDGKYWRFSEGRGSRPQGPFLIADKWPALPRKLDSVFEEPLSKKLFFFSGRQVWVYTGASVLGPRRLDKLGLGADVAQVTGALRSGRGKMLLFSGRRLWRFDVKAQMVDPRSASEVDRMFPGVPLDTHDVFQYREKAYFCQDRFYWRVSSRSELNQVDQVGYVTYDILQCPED
As to the kind of experiment: proMMP9/MMP3 P126 Activation Assay. The format is biochemical. As for the experimental part:
proMMP9/MMP3 P126 Activation Assay
The reaction volume was 50 μL. […] Reactivity of residual MMP3 towards P-126 substrate was minimal under these conditions.

Counter-ions that a name gives are not always drawn.

Broadly, the Kd is a measure of binding affinity in units of concentration. Read a low Kd as higher affinity. As usually defined, the IC50 is the midpoint of a concentration-inhibition curve. High values mean lower potency, low ones higher potency. For `Nc1nc2c(ccc3sc(Nc4cccc(C(=O)O)c4)nc32)[nH]1` [Example 15, 3-(7-Amino-6H-imidazo[4′,5′:3,4]benzo[2,1-d]thiazol-2-ylamino)-benzoic acid.TFA], the Kd in assay [1] is 9900 nM; in assay [2], 33000 nM; in assay [3], more than 95000 nM. The compound further yielded an IC50 in assay [4] of 3500 nM.

For `COc1ccccc1Nc1nc2c(ccc3[nH]c(NC(C)=O)nc32)s1` [Example 16, N-[2-(2-Methoxy-phenylamino)-6H-imidazo[4′,5′:3,4]benzo[2,1-d]thiazol-7-yl]-acetamide.TFA], the Kd in assay [1] was found to be 990 nM; in assay [2] it was 19000 nM; in assay [3], 5000 nM. The half-maximal inhibitory concentration (IC50) in assay [4] amounted to 890 nM.

`CC(=O)Nc1nc2c(ccc3sc(Nc4cc(C(N)=O)ccc4OC(C)C)nc32)[nH]1` [Example 18, 3-(7-Acetylamino-6H-imidazo[4′,5′:3,4]-benzo[2,1-d]thiazol-2-ylamino)-4-isopropoxy-benzamide.HCl]: the Kd in assay [1] stood at 550 nM; in assay [2], 3400 nM; in assay [3], 880 nM. In assay [4], this compound came in with an IC50 of 630 nM.

Turning to `Cc1nc2c(ccc3sc(Nc4cc(C(N)=O)ccc4OC(C)C)nc32)[nH]1` [Example 19, 4-Isopropoxy-3-(7-methyl-6H-imidazo[4′,5′:3,4]benzo[2,1-d]thiazol-2-ylamino)-benzamide.HCl], the Kd in assay [1] was 380 nM; in assay [2], 2200 nM; in assay [3], 460 nM. The same compound displayed a 50% inhibitory concentration (IC50) in assay [4] of 350 nM.

As to `Cc1nc2c(ccc3sc(Nc4cc(C(=O)O)ccc4OC(C)C)nc32)[nH]1` [Example 20, 4-Isopropoxy-3-(7-methyl-6H-imidazo[4′,5′:3,4]-benzo[2,1-d]thiazol-2-ylamino)-benzoic acid.HCl], the Kd in assay [1] worked out at 190 nM; in assay [2], 1900 nM; in assay [3], 1400 nM. In assay [4], this compound displayed a half-inhibitory concentration (IC50) of 240 nM.

As for `CC(C)Oc1ccc(C(N)=O)cc1Nc1nc2c(ccc3[nH]c(CO)nc32)s1` [Example 21, 3-(7-Hydroxymethyl-6H-imidazo[4′,5′:3,4]-benzo[2,1-d]thiazol-2-ylamino)-4-isopropoxy-benzamide.HCl], the equilibrium dissociation constant (Kd) in assay [1] stood at 330 nM; in assay [2] it was 3500 nM; in assay [3], 410 nM. In addition, inhibition in assay [4] was half-maximal at 500 nM (IC50).

Turning to `CC(C)Oc1ccc(C(N)=O)cc1Nc1nc2c(ccc3[nH]c(=O)[nH]c32)s1` [Example 23, 4-Isopropoxy-3-(7-oxo-7,8-dihydro-6H-imidazo[4′,5′:3,4]benzo[2,1-d]thiazol-2-ylamino)-benzamide.TFA], the Kd was found to be 970 nM in assay [1], 3000 nM in assay [2] and 590 nM in assay [3]. This compound also came in with a concentration for half-maximal inhibition (IC50) in assay [4] of 840 nM.

Consider `Cc1nc2ccc3sc(Nc4cc(C(=O)O)ccc4OC(C)C)nc3c2s1` [Example 24, 4-Isopropoxy-3-(2-methyl-benzo[1,2-d;3,4-d′]bisthiazol-7-ylamino)-benzoic acid.HCl], for which the Kd in assay [1] was 520 nM; in assay [2] it was 8400 nM; in assay [3], 1200 nM. This compound also yielded a half-maximal inhibitory concentration (IC50) in assay [4] of 380 nM.

For the compound `CC(C)Oc1ccc(C(N)=O)cc1Nc1nc2c(ccc3[nH]c(Cl)nc32)s1` [Example 25, 3-(7-Chloro-6H-imidazo[4′,5′:3,4]benzo[2,1-d]thiazol-2-ylamino)-4-isopropoxy-benzamide.HCl], the equilibrium dissociation constant (Kd) is 200 nM in assay [1], 2700 nM in assay [2] and 430 nM in assay [3]. For the same compound, the concentration for half-maximal inhibition (IC50) in assay [4] came out at 490 nM.

For the compound `CC(C)Oc1ccc(C(N)=O)cc1Nc1nc2c(ccc3nc(C(=O)N4CCN(C)CC4)[nH]c32)s1` [Example 26, 4-Isopropoxy-3-[7-(4-methyl-piperazine-1-carbonyl)-8H imidazo[4′,5′:3,4]benzo[2,1-d]thiazol-2-ylamino]-benzamide.HCl], the values for the Kd in assay [1], in assay [2] and in assay [3] were 700 nM, 6100 nM and 850 nM, respectively. In assay [4], the IC50 is 710 nM.

As for `Cc1nc2c3nc(Nc4cc(C(N)=O)ccc4OC(C)C)sc3ccc2n1C` [Example 27, 3-(6,7-Dimethyl-6H-imidazo[4′,5′:3,4]benzo[2,1-d]thiazol-2-ylamino)-4-isopropoxy-benzamide.HCl], the values for the Kd in assay [1], in assay [2] and in assay [3] were 39 nM, 530 nM and 130 nM, respectively. Moreover, the IC50 in assay [4] was found to be 58 nM.

For `CC(C)Oc1ccc(S(N)(=O)=O)cc1Nc1nc2c(ccc3c2ncn3C)s1` [Example 28, 4-Isopropoxy-3-(6-methyl-6H-imidazo[4′,5′:3,4]benzo[2,1-d]thiazol-2-ylamino)-benzenesulfonamide.HCl], the values for the Kd in assay [1], in assay [2] and in assay [3] were 2200 nM, 3500 nM and 880 nM, respectively. This compound had a 50% inhibitory concentration (IC50) in assay [4] of 180 nM.

Take `CC(C)Oc1ccc(C(N)=O)cc1Nc1nc2c(ccc3[nH]cnc32)s1` [Example 29, 3-(6H-Imidazo[4′,5′:3,4]-benzo[2,1-d]thiazol-2-ylamino)-4-isopropoxy-benzamide.HCl]: the figures for the Kd in assay [1], in assay [2] and in assay [3] were 630 nM, 1400 nM and 800 nM, respectively. The compound further returned an IC50 in assay [4] of 550 nM.

As to `CC(C)Oc1ccc(C(N)=O)cc1Nc1nc2c(ccc3[nH]c(N4CCN(C)CC4)nc32)s1` [Example 31, 4-Isopropoxy-3-[7-(4-methyl-piperazin-1-yl)-6H-imidazo[4′,5′:3,4]benzo[2,1-d]thiazol-2-ylamino]-benzamide.HCl], the Kd in assay [1] is 820 nM; in assay [2], 2300 nM; in assay [3], 930 nM. Besides, in assay [4], inhibition was half-maximal at 820 nM (IC50).

With `CC(C)Oc1ccccc1Nc1nc2c(ccc3c2ncn3C)s1` [Example 32, (2-Isopropoxy-phenyl)-(6-methyl-6H-imidazo[4′,5′:3,4]benzo[2,1-d]thiazol-2-yl)-amine.HCl], the dissociation constant (Kd) in assay [1] is 540 nM; in assay [2] it was 9200 nM; in assay [3], 3700 nM. This compound returned an IC50 in assay [4] of 350 nM.
